Reference: US20240287054A1, “COMPOUNDS THAT BIND NON-CANONICAL G-QUADRUPLEX STRUCTURES AND METHODS OF MAKING AND USING THE SAME” (The U.S.A., as Represented by the Secretary, Department of …, priority 2021, published 2024)
Read-outs that look alike come from different tables or passages of the source. Values belong to the molecule of their own block, whether it stands above or below them.

Legend:
MYCN G4 DNA = assay: Surface plasmon resonance (SPR) with immobilized biotinylated MYCN G4 DNA; assay type: binding, human
Description: Surface plasmon resonance (SPR) analysis. The SPR binding assays were performed with a BIAcore 3000 (GE Healthcare) instrument. A CM5 SPR biochip was loaded into the system and primed with running buffer (10 mM Tris, pH7.0, 100 mM KCl, 0.005% Tween 20, 5% DMSO) with a flow rate of 5 μL/min. Then both Flow Cell (Fc) 1 and 2 were activated by EDC/NHS (0.4 M/0.1 M) aqueous solution for 15 min, followed with an injection of streptavidin (SA) solution (0.2 mg/mL in 10 mM sodium acetate buffer, pH4.5) for 30 minutes. After the immobilization amount of SA reached 8,000-10,000 RU, the surface was deactivated by flowing 1 M Ethanolamine aqueous solution (pH 8.5) for 10 min and regenerated with 10 mM NaOH for 2 min to remove the unbound SA. In the meantime, biotinylated MYCN G4 DNA was prepared at 5 μM in the annealing buffer and heated up to 95° C. for 5 min and slowly cooled down. After annealing, a total of 150 μL solution was injected in the Fc 2 of SPR system for 30 min to immobilize DNA onto the chip surface. The small molecule solutions were tested once the baseline was stable.
To detect the binding signal as well as the binding affinity, a higher flowing rate (25 μL/min) was used in both Fc 1 (reference) and Fc 2 (DNA). Each of the compound solution was prepared at 20× designed the concentrations in DMSO, and then diluted into non-DMSO running buffer, resulting in a final concentration of 5% DMSO. Then, a total of 50 μL compound solution was injected in Fc 1-2 flow path for 120 s for association, followed with 200 s running of buffer for dissociation. An injection of 50 μL regeneration buffer (1 M KCl) could be performed between two samples if necessary. The final binding curve was obtained by reference subtraction. To determine the binding affinity (KD), a series of diluted compound solutions were injected and KD was calculated by BIAevaluation 4.0 software (GE Healthcare) using Langmuir 1:1 binding model.
In this example, SPR binding assays were performed to analyze binding activity of representative bivalent compounds of the present disclosure. The compounds of this example included a non-canonical binder component and a G4 stacker component. A BIAcore 3000 (GE Healthcare) instrument was used. A CM5 SPR biochip was used and primed with running buffer (10 mM Tris, pH7.0, 100 mM KCl, 0.005% Tween 20, 5% DMSO). To immobilize the compounds onto the chip surface, the flow rate was set as 5 μL/min. Then the carboxylated dextran on the chip surface was activated by EDC/NHS (0.4 M/0.1 M) aqueous solution for 15 min, followed with an injection of streptavidin (SA) solution (0.2 mg/mL in 10 mM sodium acetate buffer, pH 4.5) for 30 minutes. After the immobilization amount of SA, the surface was quenched by injecting 1 M ethanolamine (EA) aqueous solution (pH 8.5) for 10 min and regenerated with 10 mM NaOH for 2 min to remove the physical adsorption. Furthermore, biotinylated MYCN G4 DNA was prepared at 5 μM in the annealing buffer and heated up to 95° C. for 5 min followed with slowly cooling down to room temperature within 1 h. After annealing, a total of 150 μL solution was injected in the Fc 2 of SPR system for 30 min to immobilize DNA onto the chip surface. The compound solutions were then tested once the baseline was stable.
To detect the binding signal as well as the binding affinity, a higher flowing rate (25 μL/min) was used in both Fc 1 (blank) and Fc 2 (target). Each of the compound solutions was prepared at 20× designed the concentrations in DMSO, and then diluted into non-DMSO running buffer, resulting in a final concentration of 5% DMSO. Then, a total of 50 μL compound solution was injected in Fc 1-2 flow path for 120 s for association, followed with 200 s running of buffer for dissociation. An injection of 50 μL regeneration buffer (1 M KCl) could be performed between two samples if necessary. The final binding curve was obtained by referencing the blank channel (Fc 1). […]

dsDNA = assay: SPR binding to dsDNA; conditions: up to 5 μM compound injection
MYCN hairpin-G4 DNA = assay: FIA using compound fluorescence (Ex 340/Em 500 nm), titration with unlabeled MYCN G4 DNA; assay type: binding, human; conditions: 100 nM compound titrated with folded unlabeled MYCN G4
Description: In this study, FIA was used for validating the bindings between certain bivalent and MYCN G4 oligos. To measure the binding affinity, a solution of each compound was prepared in triplicate in a 96 well-plate (Costar, black side clear bottom), resulting in a final concentration of 100 nM (5% final DMSO in the working solution). Unlabeled MYCN G4 DNA was folded based on the above-mentioned annealing method, then added into the well plate resulting in different concentrations by a seral dilution. The plate was incubated at room temperature for 30 min, followed by centrifuging at 500 rpm for 2 minutes. The fluorescence intensity was then quantitatively recorded by a Synergy Mx microplate reader (BioTek) at Ex 340 nm/Em 500 nm. The fluorescence intensities were then normalized, and the binding affinity was calculated by fitting the curve using one-site total model in GraphPad Prism 8.3.1 software.

[1] = target: MYCN G4 DNA (2-AP at A11); assay: 2-Aminopurine (2-AP) fluorescence titration, A11-labeled MYCN G4; assay type: binding, human; conditions: 2-AP at A11 of MYCN G4
Description: 2-Aminopurine (2-AP) fluorescence titration. Fluorescence titrations based on 2-aminopurine labeling were performed using the protocol reported previously. Briefly, MYCN G4 oligonucleotide with a 2-AP substitution at either A11 or A18 position was annealed by heating the sample to 95° C. for 5 min and cooling down to RT slowly. The oligonucleotide with folded structure was diluted to 10 μM in Tris buffer (10 mM Tris, pH7.0, 100 mM KCl, 0.005% Tween 20) and prepared in a black 96-well plate (Costar) in triplicate as designed. Small molecules were diluted in DMSO to obtain a series of solutions with concentrations ranging from 0.1 to 5 mM, and then diluted by 20 times added into the plate (5% DMSO final concentration). The final concentration of 2-AP DNA was 1 μM in the well plate. To obtain the background fluorescence, small molecule solutions without DNA were also prepared in the same plate. After incubation for 30 min at RT, the plate was briefly centrifuged and scanned in Synergy Mx microplate reader (BioTek) with Ex 310 nm/Em 365 nm. Fluorescence signals were calculated by averaging the intensities in triplicate wells after subtracting the references. Finally, the binding signals were normalized and the KD value was determined by fitting the curve using a nonlinear sigmoidal dose-response model with a variable slope in GraphPad Prism 8.3.1 software.

[2] = Solubility / aggregation observations in binding buffers; assay type: physicochemical; conditions: assay buffers, SPR sensorgrams
Description: A systematic binding assay between 14 analogs and MYCN G4 was performed by SPR and 2-AP (A11) fluorescence titration (FIGS. 26A-26N, 27A-27N). […] For 2-AP fluorescence titration assay (using an A11-substituted construct) observed KD values aligned well with SPR experiments, although the values were slightly lower overall. […] Taking all the SAR data into consideration, MY-8 was elected for cell-based assays.

[3] = system: MYCN G4 DNA (hairpin minor groove); assay: Fluorescence displacement assay with Hoechst 33258; assay type: binding, human; conditions: competitor added at 5 μM or 50 μM during DNA titration
Description: Fluorescence displacement assay. Fluorescence displacement assays were carried out by using two classical minor groove binders (Hoechst 33258 and netropsin). Hoechst 33258, as a fluorophore, was prepared at 5 μM concentration in the buffer (10 mM Tris, pH7.0, 100 mM KCl), and then titrated with different concentrations of unlabeled MYCN G4 oligonucleotides. For displacement, either compound MY-1 or netropsin was added into the solution resulting in a final concentration of 5 μM or 50 μM. Fluorescence signals were obtained with an excitation wavelength of 352 nm and an emission wavelength of 500 nm.

[4] = system: 12 different G4 oligos as well as non-G4 oligos (dsDNA and ssDNA); assay: Small-scale DNA G4 microarray binding selectivity; conditions: fluorescent compound incubated 1 h; B33 at 2.5 μM
Description: In this example, a small-scale DNA G4 microarray containing 12 different G4 oligos as well as non-G4 oligos (dsDNA and ssDNA) was fabricated and tested (Table 4). To start with, a SA-coated glass surface was prepared. An amino-functionalized glass slide was firstly modified with a solution of N, N′-disuccinimidyl carbonate (DSC, 1.0 M) and N, N-diisopropylethylamine (DIPEA, 1.0 M) in DMF overnight at room temperature. After being washed successively with EtOH, Milli-Q water (5 min each) and dried with N2 gas, the slide was incubated with 1 mg/mL of SA solution for 12 h (overnight) in a 4° C. fridge, followed by blocking the surface with EA buffer for 30 minutes. Then, the slide was rinsed with PBS buffer and Milli-Q water, and dried b centrifugation (1,700 g, 2 min).
In parallel, biotin-labeled DNA/RNA oligos were prepared in annealing buffer resulting in 5 μM stock solutions, followed by annealing (according to above methods). Then all the oligo solutions were transferred into a 384-well plate. Next, the microarray printing was conducted by a robotic arrayer (Nanoprint, Arrayit, USA) with a humidity of 60%. After the microarray was fabricated, the slide was placed in a slide box with a piece of wet Kimwipe tissue and incubated at 4° C. for 2 h.
To incubate with the fluorescent compounds (compound B33, thiazole orange (“TO”), and amsacrine), the slide was thoroughly rinsed with PBST, PBS, and water to remove the unbounded oligos. Then, the slide was dried by centrifugation (1,700 g, 2 min) and quickly assembled with microarray gaskets (Agilent, USA), followed by loading the compound solutions. After 1 h incubation, the slide was washed and dried with the above-mentioned method. Finally, the microarray slide was imaged by a fluorescence scanner (Mapix) using green channel and the fluorescence intensities were quantified.

[5] = system: ~19,000 different G4 sequences, G4 and non-G4 controls; assay: High-density DNA oligo microarray (~19,000 G4 sequences) selectivity profiling; assay type: binding; conditions: 500 nM compound
Source text: To further characterize the binding selectivity of compound B33, high-density and large-scale DNA microarrays that contained ˜19,000 different G4 sequences were fabricated and used. In this microarray, 340 reported G4s (G-rich sequences) as well as 280 non-G4s (C-rich sequences) were designed as positive and negative controls. Additionally, over 17,000 canonical G4 oligos with short loops (1˜7 nt) were also designed and synthesized by varying the loop sequences to meet the diversity of G4 structure. After folding the surface-grafted DNA oligos in high concentration of KCl buffer, TO and compound B33 solutions (500 nM) were incubated with the microarray, respectively. Then the slides were thoroughly washed, dried, and imaged by a fluorescent scanner using green channel. […] By quantifying the fluorescence intensity of each spot, the bindings of TO and compound B33 were further investigated. The kernel density estimate (KDE) plot and violin plot represented the distribution of the binding signals throughout the whole microarray. […] Compound B33 spectrum spanned a much wider range than that of TO. In the violin plot (FIG. 37C), the mean SNR value of TO group was 12, much higher than that of the compound B33 group. […] Furthermore, the selectivity of the two compounds were quantitatively profiled by using Gini coefficient. Gini coefficient, initially used as an economic concept, has been applied in profiling the selectivity/promiscuity of kinase inhibitors as well as RNA binders. A higher Gini value represents a better selectivity of a compound (Gini coefficient>0.75 is considered an excellent selectivity). The Gini coefficient based on the SNRs in the microarray.

Kd (MYCN G4 DNA; MYCN hairpin G4, SPR titration, read-out: KD by SPR): 0.303 ± 0.032 µM | binding to dsDNA on SPR (dsDNA): bound to dsDNA at low micromolar level | Kd (MYCN hairpin-G4 DNA): 0.311 ± 0.052 µM
SMILES: COc1ccc(-c2noc(-c3ccc(NCCNc4c5ccc(Cl)cc5nc5ccc(OC)cc45)nn3)n2)cc1 [B32, N1-(6-chloro-2-methoxyacridin-9-yl)-N2-(6-(3-(4-methoxyphenyl)-1,2,4-oxadiazol-5-yl)pyridazin-3-yl)ethane-1,2-diamine]

Kd (MYCN G4 DNA; MYCN G4, Langmuir 1:1 model, read-out: SPR KD): 2.6 ± 1.9 µM | A11 2AP KD [1]: sub-micromolar binders | Kd [1]: 0.2 ± 0.03 µM | solubility / aggregation [2]: aggregation potential/poor solubility
SMILES: COc1ccc(-c2noc(-c3ccc(NCCCN4CCC(N5CCCCC5)CC4)nn3)n2)cc1 [MY-2]

solubility / aggregation [2]: had solubility in suitable buffers
SMILES: COc1ccc(-c2noc(-c3ccc(NCCC4=CCCCC4)nn3)n2)cc1 [MY-4]

solubility / aggregation [2]: had solubility in suitable buffers
SMILES: COc1ccc(-c2noc(-c3ccc(NCCc4ccccc4)nn3)n2)cc1 [MY-9]

SMILES: Cn1cc(NC(=O)c2cc(NC(=O)CN=C(N)N)cn2C)cc1C(=O)NCCC(=N)N [Netropsin, reference compound]
displacement of Hoechst 33258 (decrease in fluorescence intensity) [3]: significant displacement

binding to the 620 G4 and non-G4 controls ([5]; 340 G4s and 280 non-G4s): binding to both G4s and non-G4s
SMILES: CN1C(=Cc2cc[n+](C)c3ccccc23)Sc2ccccc21 [TO]
binding pattern in G4 microarray [4]: binding to most of the oligos except for dsDNA/ssDNA | Gini coefficient ([5]; based on SNRs in the microarray): 0.236 | mean SNR value ([5]; whole microarray): 12
